Patent US20210338629A1, “ORAL FORMULATIONS OF PHENYLALANINE AND CANNABINOIDS” (priority 2018, published 2021)
Read-outs that look alike come from different tables or passages of the source.

Tests used:
human CB1R [1] = biological target: T1, human CB1R (Homo sapiens, UniProt P21554); format: cell-based; conditions: for Effect of the cannabinoid on the DLPA effect (DLPA alone vs combos): FIG. 5A-5C
T1 construct: expressed in transfected cells; host or cells: HEK293T (HEK293T-CB1), transiently co-transfected with the CRE-luc reporter
T1 sequence (P21554 whole entry): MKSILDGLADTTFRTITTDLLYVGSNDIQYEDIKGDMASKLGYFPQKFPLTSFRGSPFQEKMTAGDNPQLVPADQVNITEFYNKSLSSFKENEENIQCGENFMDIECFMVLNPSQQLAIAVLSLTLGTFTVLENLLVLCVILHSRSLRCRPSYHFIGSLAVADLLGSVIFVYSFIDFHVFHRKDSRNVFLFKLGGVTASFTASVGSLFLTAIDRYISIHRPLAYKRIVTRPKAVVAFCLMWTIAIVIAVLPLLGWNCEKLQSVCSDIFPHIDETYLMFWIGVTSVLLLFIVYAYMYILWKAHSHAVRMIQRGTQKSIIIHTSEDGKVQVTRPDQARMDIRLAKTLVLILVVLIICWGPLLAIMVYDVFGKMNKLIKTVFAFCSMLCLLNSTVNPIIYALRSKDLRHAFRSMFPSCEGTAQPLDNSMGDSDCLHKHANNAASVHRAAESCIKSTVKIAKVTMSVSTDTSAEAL

[2] = cited from earlier work
human CB1R [3] = biological target: T1, human CB1R; format: cell-based
inflammation = conditions: co-administered with THC; cited from earlier work
[4] = biological target: α2δ Ca2+ calcium channels; conditions: antagonist; cited from earlier work
[5] = tested on: glutamatergic synapses in hippocampus and cortex; conditions: cited from earlier work
[6] = tested on: neuropathic and chronic pain; conditions: 1,000 mg given ×1 (once a day); cited from earlier work
[7] = THCA or THC without DLPA, 10 μM
[8] = DLPA 1 mM, alone or + 10 μM THCA, 1 μM CBD or 10 μM THC
[9] = DLPA 2.5 mM, alone or + 10 μM THCA, 1 μM CBD or 10 μM THC
[10] = DLPA 5 mM, alone or + 10 μM THCA, 1 μM CBD or 10 μM THC
[11] = DLPA 7.5 mM, alone or + 10 μM THCA, 1 μM CBD or 10 μM THC
[12] = DLPA 10 mM, alone or + 10 μM THCA, 1 μM CBD or 10 μM THC
[13] = DLPA 1 mM, alone or + 10 μM THCA or THC
[14] = DLPA 2.5 mM, alone or + 10 μM THCA or THC
[15] = DLPA 5 mM, alone or + 10 μM THCA or THC
[16] = DLPA 7.5 mM, alone or + 10 μM THCA or THC
[17] = DLPA 10 mM, alone or + 10 μM THCA or THC

Compound: CCCCCc1cc2c(c(O)c1C(=O)O)[C@@H]1C=C(C)CC[C@H]1C(C)(C)O2 [THCA, tetrahydrocannabinolic acid]
- Effect of the cannabinoid on the DLPA effect (DLPA alone vs combos) (human CB1R [1]): did not modify the DLPA effect
- Conclusions: Is CB1R positive allosteric agonism effect observed? (human CB1R [1]; [7]): Negative (Only treatments that the mean of three consecutive independent experiments shows a positive result (CB1R activity ≥4-fold change) are considered positive CB1R allosteric agonists)
- Experiment 1 Fold change (human CB1R [1]; [7]): 2.2 fold change
- Experiment 2 Fold change (human CB1R [1]; [7]): 3.1 fold change
- Experiment 3 Fold change (human CB1R [1]; [7]): 2.8 fold change
- Decarboxylation by gastric acids [2]: do not decarboxylate
- Conclusions: Is CB1R agonist effect observed? (human CB1R [3]; THCA or THC alone, 10 μM): Negative (Only treatments that the mean of three consecutive independent experiments shows a positive result: CB1R activity ≥2.5-fold increase or ≥4-fold increase are considered CB1R agonists or CB1R positive allosteric modulators)
- Experiment 1 Fold change (human CB1R [3]; THCA or THC alone, 10 μM): 0.8 fold change
- Experiment 2 Fold change (human CB1R [3]; THCA or THC alone, 10 μM): 1.0 fold change
- Experiment 3 Fold change (human CB1R [3]; THCA or THC alone, 10 μM): 1.0 fold change

Compound: CCCCCc1cc(O)c2c(c1)OC(C)(CCC=C(C)C)C=C2 (stereo not drawn) [CBC, cannabichromene]
- Anti-inflammatory effect (inflammation): enhanced anti-inflammatory effect

Compound: N[C@@H](Cc1ccccc1)C(=O)O [L-Phenylalanine, L-phenylalanine]
- Ki [4]: 0.98 µM
- IC50 ([5]; hippocampus and cortex): 980 µM

Compound: CCCCCCC(C)(C)c1ccc([C@@H]2C[C@H](O)CC[C@H]2CCCO)c(O)c1 [CP, reference compound]
- Experiment 1 Fold change (human CB1R [1]): 2.5 fold change
- Experiment 2 Fold change (human CB1R [1]): 2.5 fold change
- Experiment 3 Fold change (human CB1R [1]): 2.5 fold change
- Experiment 1 Fold change (human CB1R [3]): 2.5 fold change
- Experiment 2 Fold change (human CB1R [3]): 2.5 fold change
- Experiment 3 Fold change (human CB1R [3]): 2.5 fold change

Compound: N[C@H](Cc1ccccc1)C(=O)O [D-phenylalanine]
- Effect on neurotransmitter release (in words) ([5]; compared with L-Phenylalanine): significantly smaller effect

Compound: NC(Cc1ccccc1)C(=O)O (racemic) [DLPA, DL-Phenylalanine]
- Conclusions: Is CB1R positive allosteric agonism effect observed? (human CB1R [1]; [8]): Negative (Only treatments that the mean of three consecutive independent experiments shows a positive result (CB1R activity ≥4-fold change) are considered positive CB1R allosteric agonists)
- Experiment 1 Fold change (human CB1R [1]; [8]): 2.7 fold change
- Experiment 2 Fold change (human CB1R [1]; [8]): 2.5 fold change
- Experiment 3 Fold change (human CB1R [1]; [8]): 3.0 fold change
- Conclusions: Is CB1R positive allosteric agonism effect observed? (human CB1R [1]; [9]): Negative (Only treatments that the mean of three consecutive independent experiments shows a positive result (CB1R activity ≥4-fold change) are considered positive CB1R allosteric agonists)
- Experiment 1 Fold change (human CB1R [1]; [9]): 2.4 fold change
- Experiment 2 Fold change (human CB1R [1]; [9]): 2.1 fold change
- Experiment 3 Fold change (human CB1R [1]; [9]): 4.0 fold change
- Conclusions: Is CB1R positive allosteric agonism effect observed? (human CB1R [1]; [10]): Negative (Only treatments that the mean of three consecutive independent experiments shows a positive result (CB1R activity ≥4-fold change) are considered positive CB1R allosteric agonists)
- Experiment 1 Fold change (human CB1R [1]; [10]): 3.1 fold change
- Experiment 2 Fold change (human CB1R [1]; [10]): 2.7 fold change
- Experiment 3 Fold change (human CB1R [1]; [10]): 2.9 fold change
- Conclusions: Is CB1R positive allosteric agonism effect observed? (human CB1R [1]; [11]): Negative (Only treatments that the mean of three consecutive independent experiments shows a positive result (CB1R activity ≥4-fold change) are considered positive CB1R allosteric agonists)
- Experiment 1 Fold change (human CB1R [1]; [11]): 3.1 fold change
- Experiment 2 Fold change (human CB1R [1]; [11]): 3.1 fold change
- Experiment 3 Fold change (human CB1R [1]; [11]): 5.0 fold change
- Conclusions: Is CB1R positive allosteric agonism effect observed? (human CB1R [1]; [12]): Allosterism (An increase of the fold change ≥4-fold indicates CB1R positive allosteric agonistic activity)
- Experiment 1 Fold change (human CB1R [1]; [12]): 4.0 fold change
- Experiment 2 Fold change (human CB1R [1]; [12]): 3.5 fold change
- Experiment 3 Fold change (human CB1R [1]; [12]): 6.5 fold change
- CB1R positive allosteric effect (in words) (human CB1R [1]; on CP-55940 activity, dose-response curve, FIG. 4): clear CB1R positive allosteric effect
- Relief of neuropathic and chronic pain [6]: beneficial
- Conclusions: Is CB1R agonist effect observed? (human CB1R [3]; [13]): Negative (Only treatments that the mean of three consecutive independent experiments shows a positive result: CB1R activity ≥2.5-fold increase or ≥4-fold increase are considered CB1R agonists or CB1R positive allosteric modulators)
- Experiment 1 Fold change (human CB1R [3]; [13]): 0.9 fold change
- Experiment 2 Fold change (human CB1R [3]; [13]): 0.9 fold change
- Experiment 3 Fold change (human CB1R [3]; [13]): 1.0 fold change
- Conclusions: Is CB1R agonist effect observed? (human CB1R [3]; [14]): Negative (Only treatments that the mean of three consecutive independent experiments shows a positive result: CB1R activity ≥2.5-fold increase or ≥4-fold increase are considered CB1R agonists or CB1R positive allosteric modulators)
- Experiment 1 Fold change (human CB1R [3]; [14]): 1.0 fold change
- Experiment 2 Fold change (human CB1R [3]; [14]): 0.9 fold change
- Experiment 3 Fold change (human CB1R [3]; [14]): 0.9 fold change
- Conclusions: Is CB1R agonist effect observed? (human CB1R [3]; [15]): Negative (Only treatments that the mean of three consecutive independent experiments shows a positive result: CB1R activity ≥2.5-fold increase or ≥4-fold increase are considered CB1R agonists or CB1R positive allosteric modulators)
- Experiment 1 Fold change (human CB1R [3]; [15]): 0.8 fold change
- Experiment 2 Fold change (human CB1R [3]; [15]): 0.8 fold change
- Experiment 3 Fold change (human CB1R [3]; [15]): 0.7 fold change
- Conclusions: Is CB1R agonist effect observed? (human CB1R [3]; [16]): Negative (Only treatments that the mean of three consecutive independent experiments shows a positive result: CB1R activity ≥2.5-fold increase or ≥4-fold increase are considered CB1R agonists or CB1R positive allosteric modulators)
- Experiment 1 Fold change (human CB1R [3]; [16]): 1.0 fold change
- Experiment 2 Fold change (human CB1R [3]; [16]): 0.8 fold change
- Experiment 3 Fold change (human CB1R [3]; [16]): 1.0 fold change
- Conclusions: Is CB1R agonist effect observed? (human CB1R [3]; [17]): Negative (Only treatments that the mean of three consecutive independent experiments shows a positive result: CB1R activity ≥2.5-fold increase or ≥4-fold increase are considered CB1R agonists or CB1R positive allosteric modulators)
- Experiment 1 Fold change (human CB1R [3]; [17]): 1.1 fold change
- Experiment 2 Fold change (human CB1R [3]; [17]): 1.0 fold change
- Experiment 3 Fold change (human CB1R [3]; [17]): 1.0 fold change
- CB1R agonistic activity (in words) (human CB1R [3]; all tested concentrations, DLPA 1-10 mM, THC or THCA 10 μM): did not show CB1R agonistic activity

Compound: C=C(C)[C@@H]1CCC(C)=C[C@H]1c1c(O)cc(CCCCC)cc1O [CBD, cannabidiol, reference compound]
- Conclusions: Is CB1R positive allosteric agonism effect observed? (human CB1R [1]; CBD without DLPA, 1 μM): Negative (Only treatments that the mean of three consecutive independent experiments shows a positive result (CB1R activity ≥4-fold change) are considered positive CB1R allosteric agonists)
- Experiment 1 Fold change (human CB1R [1]; CBD without DLPA, 1 μM): 1.4 fold change
- Experiment 2 Fold change (human CB1R [1]; CBD without DLPA, 1 μM): 1.5 fold change
- Experiment 3 Fold change (human CB1R [1]; CBD without DLPA, 1 μM): 1.4 fold change
- Effect of the cannabinoid on the DLPA effect (DLPA alone vs combos) (human CB1R [1]): blocked not only the DLPA CB1R allosteric activity, but also the agonistic activity of CP-55940

Compound: C=C(C)[C@@H]1CCC(C)=C[C@H]1c1c(O)cc(CCCCC)c(C(=O)O)c1O [CBDA, cannabidiolic acid]
- Decarboxylation by gastric acids [2]: do not decarboxylate
